We go through 45 compounds from the Biogen ADME set (Fang et al. 2023).

The structures appear in SMILES notation. Values after ≈ are worked out from the molar mass of the structure shown.

Usually aqueous solubility stands for how much of the substance goes into solution per volume. A higher aqueous solubility goes with much dissolved substance.

The conditions of this series: for aqueous solubility: pH 6.8.

In the case of `CN1CCC(OC(=O)Nc2ccc(Cl)c(Cl)c2)CC1`, the MDR1-MDCK efflux ratio came to 0.397; the intrinsic clearance, human liver microsomes was 8.57 mL/min/kg; the intrinsic clearance, rat liver microsomes came to 209 mL/min/kg; the aqueous solubility worked out at 87.4 µg/mL (≈ 288 µM).
`C#CCNC(=O)CCc1c(C)nn(C)c1C`: the MDR1-MDCK efflux ratio turned out to be 7.96; the intrinsic clearance, human liver microsomes was not above 4.74 mL/min/kg; the intrinsic clearance, rat liver microsomes was not above 10.7 mL/min/kg; the aqueous solubility stood at 60.9 µg/mL (≈ 278 µM).
`Cc1c(C(=O)NCCc2cc3nc(-c4ccco4)ccn3n2)cnn1C` displayed an intrinsic clearance, human liver microsomes of 29 mL/min/kg and an intrinsic clearance, rat liver microsomes of 173 mL/min/kg.
As for `Cc1c(-c2c(F)cc(C(N)=O)c3[nH]c4c(c23)CC[C@H](C(C)(C)O)C4)cccc1-n1c(=O)c2cccc(F)c2n(C)c1=O`, the MDR1-MDCK efflux ratio was 3.4; the fraction unbound, human plasma was determined as 0.0273; the fraction unbound, rat plasma was found to be 0.0212; the intrinsic clearance, human liver microsomes is 11.4 mL/min/kg. Further, the intrinsic clearance, rat liver microsomes stood at 43.4 mL/min/kg and the aqueous solubility worked out at 2.4 µg/mL (≈ 4.19 µM).
Consider `CC(C)CN1C(=O)C(=O)N(Cc2ccccn2)C1=O`, for which the MDR1-MDCK efflux ratio was found to be 0.838; the intrinsic clearance, human liver microsomes was not above 4.74 mL/min/kg; the intrinsic clearance, rat liver microsomes was determined as 28.4 mL/min/kg; the aqueous solubility worked out at 39.2 µg/mL (≈ 150 µM).
Take `c1cnc(NCc2cccc(-c3cccnc3)c2)nc1`: the MDR1-MDCK efflux ratio was found to be 0.571; the intrinsic clearance, human liver microsomes stood at 19.6 mL/min/kg; the intrinsic clearance, rat liver microsomes worked out at 148 mL/min/kg.
For `Cc1ccc(-c2ccccc2-c2nc3c(cnn3C3CCN(C)CC3)[nH]2)o1`, the MDR1-MDCK efflux ratio was determined as 40.1; the intrinsic clearance, human liver microsomes was not above 4.74 mL/min/kg; the intrinsic clearance, rat liver microsomes came out at 100 mL/min/kg; the aqueous solubility was found to be 40.5 µg/mL (≈ 112 µM).
Regarding `Cc1ccc(C(=O)NCCc2csc(C)n2)cn1`, the MDR1-MDCK efflux ratio came to 0.918; the intrinsic clearance, human liver microsomes stood at 7.45 mL/min/kg; the intrinsic clearance, rat liver microsomes amounted to 11.3 mL/min/kg; the aqueous solubility worked out at 40.4 µg/mL (≈ 155 µM).
On to `Cc1ccc(S(=O)(=O)N2CCC[C@H](C(=O)NC3CCOCC3)C2)cc1`, for which the MDR1-MDCK efflux ratio amounted to 20.9; the intrinsic clearance, human liver microsomes is not above 4.74 mL/min/kg; the intrinsic clearance, rat liver microsomes was determined as 581 mL/min/kg; the aqueous solubility stood at 54.1 µg/mL (≈ 148 µM).
For `Cc1ccc(CN(C)c2ncnc3c2cnn3C)o1` the same measures were 0.657, 19.2 mL/min/kg, 223 mL/min/kg and 40.9 µg/mL (≈ 159 µM).
Regarding `Cn1ncnc1NCc1cc(F)cc(F)c1`, the MDR1-MDCK efflux ratio was 0.757; the intrinsic clearance, human liver microsomes was not above 4.74 mL/min/kg; the intrinsic clearance, rat liver microsomes is not above 10.7 mL/min/kg.
Take `Cc1cc(CNC(=O)N(C)Cc2c(C)nn(C)c2C)cnc1C`: the MDR1-MDCK efflux ratio worked out at 94.1; the intrinsic clearance, human liver microsomes is not above 4.74 mL/min/kg; the intrinsic clearance, rat liver microsomes was determined as 112 mL/min/kg.
For the compound `CC(C)NC(=O)CN(C)c1ccc(Cl)c(C#N)n1`, the intrinsic clearance, human liver microsomes is not above 4.74 mL/min/kg and the intrinsic clearance, rat liver microsomes came to 87.1 mL/min/kg.
On to `CCN(CCOC)C(=O)Nc1ccc2occc(=O)c2c1`, for which the MDR1-MDCK efflux ratio is 1.32; the intrinsic clearance, human liver microsomes came out at 9.83 mL/min/kg; the intrinsic clearance, rat liver microsomes came to 32.7 mL/min/kg.
With `COc1ccc(Cc2noc(-c3cccc4c3OCC(=O)N4)n2)cc1`, the intrinsic clearance, human liver microsomes came to 18.6 mL/min/kg and the intrinsic clearance, rat liver microsomes turned out to be 148 mL/min/kg.
Compound `COCCOc1ccc2c(c1)ncn2-c1ccc2cccc(N3CCC(N)CC3)c2n1` registered an intrinsic clearance, human liver microsomes of 14.7 mL/min/kg; an intrinsic clearance, rat liver microsomes of 258 mL/min/kg; an aqueous solubility of 30.4 µg/mL (≈ 72.7 µM).
As for `COc1ccc2cc(-c3[nH]c(-c4ccc(S(C)=O)cc4)nc3-c3ccncc3)ccc2c1` (stereo not given), the MDR1-MDCK efflux ratio is 34.8; the intrinsic clearance, human liver microsomes turned out to be 4.96 mL/min/kg; the intrinsic clearance, rat liver microsomes was determined as 121 mL/min/kg; the aqueous solubility came out at 3.4 µg/mL (≈ 7.74 µM).
As for `O=C(Cc1ccc2c(c1)CCC2)Nc1nc2ccccc2o1`, the MDR1-MDCK efflux ratio stood at 0.499; the intrinsic clearance, human liver microsomes turned out to be 113 mL/min/kg; the intrinsic clearance, rat liver microsomes amounted to 1540 mL/min/kg; the aqueous solubility was 3.63 µg/mL (≈ 12.4 µM).
As to `Cn1cc(C(=O)O)c(C2CCCCC2)n1`, the MDR1-MDCK efflux ratio turned out to be 1.04; the intrinsic clearance, human liver microsomes was not above 4.74 mL/min/kg; the intrinsic clearance, rat liver microsomes was not above 10.7 mL/min/kg; the aqueous solubility was found to be 33.6 µg/mL (≈ 161 µM).
Turning to `CCn1ccc2cc(C(=O)N3CCN(c4ccc(C)cc4)C(=O)C3)ccc21`, the MDR1-MDCK efflux ratio was 2.47; the intrinsic clearance, human liver microsomes turned out to be 12 mL/min/kg; the intrinsic clearance, rat liver microsomes turned out to be 260 mL/min/kg; the aqueous solubility is 45.7 µg/mL (≈ 127 µM).
With `COc1cccc(NC(=O)C2CNC2)c1`, the intrinsic clearance, human liver microsomes was not above 4.74 mL/min/kg; the intrinsic clearance, rat liver microsomes is 59.4 mL/min/kg; the aqueous solubility was 29.5 µg/mL (≈ 143 µM).
The compound `Cc1ccncc1NC(=O)Cc1ccc(F)cc1` came in with an intrinsic clearance, human liver microsomes not above 4.74 mL/min/kg and an intrinsic clearance, rat liver microsomes of 20.4 mL/min/kg.
Regarding `CCCn1cc(CNC(=O)CN2CCCC2)cn1`, the intrinsic clearance, human liver microsomes was not above 4.74 mL/min/kg and the intrinsic clearance, rat liver microsomes worked out at 253 mL/min/kg.
For the compound `O=C(O)c1ccccc1-n1cnc(CN2CCCC2)c1`, the MDR1-MDCK efflux ratio turned out to be 2.49; the intrinsic clearance, human liver microsomes was not above 4.74 mL/min/kg; the intrinsic clearance, rat liver microsomes was not above 10.7 mL/min/kg; the aqueous solubility was determined as 38.8 µg/mL (≈ 143 µM).
Consider `O=C(C1CCC1)N1CCC(c2ncc(-c3ccc(F)c(F)c3)[nH]2)CC1`, for which the MDR1-MDCK efflux ratio turned out to be 3.5; the intrinsic clearance, human liver microsomes turned out to be 43.2 mL/min/kg; the intrinsic clearance, rat liver microsomes amounted to 2740 mL/min/kg; the aqueous solubility was 57.1 µg/mL (≈ 165 µM).
On to `CCN(Cc1ccccc1)C(=O)c1cccnc1N`, for which the MDR1-MDCK efflux ratio was 0.65; the intrinsic clearance, human liver microsomes is not above 4.74 mL/min/kg; the intrinsic clearance, rat liver microsomes is 174 mL/min/kg; the aqueous solubility came to 36.7 µg/mL (≈ 144 µM).
As to `CN1C(=O)N(CC(=O)NCc2ccc(Cl)cc2)C(=O)C12CCCCC2`, the MDR1-MDCK efflux ratio came out at 5.53; the intrinsic clearance, human liver microsomes is 796 mL/min/kg; the intrinsic clearance, rat liver microsomes turned out to be 2110 mL/min/kg; the aqueous solubility was found to be 50.7 µg/mL (≈ 139 µM).
As to `CCS(=O)(=O)Nc1ccc(Oc2ccc(F)cc2F)c(-c2cn(C)c(=O)c3[nH]ccc23)c1`, the MDR1-MDCK efflux ratio came to 51.2; the intrinsic clearance, human liver microsomes is not above 4.74 mL/min/kg; the intrinsic clearance, rat liver microsomes stood at 14.9 mL/min/kg; the aqueous solubility was determined as 16.9 µg/mL (≈ 36.7 µM).
For `Cn1ccnc1CCNC(=O)c1cccc2cccnc12` the same measures were 7.87, 11.5 mL/min/kg, 150 mL/min/kg and 41.5 µg/mL (≈ 148 µM).
As to `O=C1Nc2ccccc2O[C@H]2C[C@@H]1N(Cc1cccnc1)C2`, the MDR1-MDCK efflux ratio was 17.7; the intrinsic clearance, human liver microsomes worked out at 12.7 mL/min/kg; the intrinsic clearance, rat liver microsomes is 281 mL/min/kg; the aqueous solubility worked out at 94.3 µg/mL (≈ 319 µM).
In turn, `CCn1nnc2cc(C(=O)Nc3cccc(C#N)c3)ccc21` registered an aqueous solubility of 1 µg/mL (≈ 3.43 µM).
Consider `COCCc1nsc(Oc2ccc(C)cc2Br)n1`, for which the MDR1-MDCK efflux ratio is 0.578; the intrinsic clearance, human liver microsomes was 148 mL/min/kg; the intrinsic clearance, rat liver microsomes was found to be 4590 mL/min/kg.
Compound `Nc1nn(C(=O)Cc2ccc(F)cc2)c2cccc(F)c12` showed an intrinsic clearance, human liver microsomes of 16.7 mL/min/kg and an intrinsic clearance, rat liver microsomes of 62.9 mL/min/kg.
On to `Cc1cc(C)n2ncc(C(=O)N[C@H]3CC[C@@H](C(C)C)CC3)c2n1`, for which the MDR1-MDCK efflux ratio stood at 0.775.
Consider `CCN(CC)C(=O)Oc1cccc2cccnc12`, for which the intrinsic clearance, human liver microsomes stood at 20.6 mL/min/kg and the intrinsic clearance, rat liver microsomes came to 189 mL/min/kg.
Regarding `Fc1ccc2[nH]c(CO[C@H]3CN(Cc4ccccc4)C[C@H]3F)nc2c1`, the MDR1-MDCK efflux ratio was 0.885; the intrinsic clearance, human liver microsomes worked out at 88.9 mL/min/kg; the intrinsic clearance, rat liver microsomes amounted to 971 mL/min/kg; the aqueous solubility is 35.4 µg/mL (≈ 103 µM).
With `O=C(COc1ccc2ccc(=O)oc2c1)Nc1cccc(COCc2ccco2)c1`, the intrinsic clearance, human liver microsomes is 77.5 mL/min/kg; the intrinsic clearance, rat liver microsomes stood at 425 mL/min/kg; the aqueous solubility came to 21.4 µg/mL (≈ 52.7 µM).
As for `COCCN1CCOc2nc3c(C)cccc3cc2C1`, the MDR1-MDCK efflux ratio was determined as 0.564; the intrinsic clearance, human liver microsomes came out at 14.7 mL/min/kg; the intrinsic clearance, rat liver microsomes was 882 mL/min/kg.
Regarding `CN(CCC1CCCCC1)C(=O)c1ccon1`, the MDR1-MDCK efflux ratio was found to be 0.597; the intrinsic clearance, human liver microsomes is 40.4 mL/min/kg; the intrinsic clearance, rat liver microsomes came to 972 mL/min/kg; the aqueous solubility turned out to be 69.9 µg/mL (≈ 296 µM).
In the case of `COc1ccc(S(=O)(=O)N2CCC[C@H](C(=O)Nc3cccc4ncccc34)C2)cc1`, the intrinsic clearance, human liver microsomes is 22.6 mL/min/kg and the intrinsic clearance, rat liver microsomes worked out at 611 mL/min/kg.
Consider `CCn1c(C)nc2cc(NC(=O)c3ccc(=O)n(CC(=O)N4CCCCC4)c3)ccc21`, for which the MDR1-MDCK efflux ratio was determined as 4.08; the intrinsic clearance, human liver microsomes was not above 4.74 mL/min/kg; the intrinsic clearance, rat liver microsomes turned out to be 54.8 mL/min/kg; the aqueous solubility is 78.4 µg/mL (≈ 186 µM).
For `O=C(NCc1cc(F)cc(F)c1)c1ccccn1` the same measures were 0.719, not above 4.74 mL/min/kg, 51.6 mL/min/kg and 43.4 µg/mL (≈ 175 µM).
As for `O=C(CN1CCCC(c2cccc(-c3cccc(Cl)c3)n2)C1)N1CCCC1` (stereo not given), the MDR1-MDCK efflux ratio is 2.16; the intrinsic clearance, human liver microsomes is 51.4 mL/min/kg; the intrinsic clearance, rat liver microsomes amounted to 419 mL/min/kg; the aqueous solubility turned out to be 54.8 µg/mL (≈ 143 µM).
As for `CCN(c1cc(-c2ccc(CN3CCOCC3)cc2)cc(C(=O)NCc2c(C)cc(C)nc2O)c1C)C1CCOCC1`, the MDR1-MDCK efflux ratio was found to be 60.3; the intrinsic clearance, human liver microsomes was found to be 131 mL/min/kg; the intrinsic clearance, rat liver microsomes worked out at 525 mL/min/kg; the aqueous solubility came out at 49.2 µg/mL (≈ 85.9 µM).
Compound `CC(=O)NC1(c2ccc(F)cc2)CCN(Cc2ccc(OC3CCCC3)cc2)CC1` showed an intrinsic clearance, human liver microsomes of 24.8 mL/min/kg; an intrinsic clearance, rat liver microsomes of 346 mL/min/kg; an aqueous solubility of 72.4 µg/mL (≈ 176 µM).
